Where two headings read alike, the source gives them in different places.

As usually defined, the IC50 is the point on the concentration scale where inhibition reaches its midpoint.

In test [1] the test system is Shionogi mouse mammary carcinoma cells. Nature of the test: Antiandrogenic activity on DHT-stimulated Shionogi mouse mammary carcinoma cell number. Type of test: cell-based. Conditions: for A = Ki OH-Flu/Ki compound: ratio of Ki of hydroxyflutamide versus tested compound, higher values preferable.
In test [2] the test system is ear sebaceous glands in the male hamster. Kind of test: Topical antiandrogenic activity, ear sebaceous glands model in the male hamster. The format is in vivo, Golden Syrian hamster. To be noted: Mesocricetus auratus, 336 h, topical on left pinna, area of sebaceous glands of left ear, read-out: Ear Area Inhibition. Vs Control (%); for inhibition in vivo at 0.01 mg: dose 10 μg daily for 14 days; for inhibition in vivo at 0.03 mg: dose 30 μg daily for 14 days. The text has this:
• Column 2 represent the daily dose for 14 days of tested compound dissolved in ten μl solution of acetone:ethanol:propylene Glycol (1:1:2; v:v:v) applied onto a region between the two cartilage ridges of the ventral surface of left pinna. • Column 3 represents the percentage of inhibition of the area of the sebaceous glands of the left ear of the treated animals versus the area of the sebaceous glands of the left ear of the control animals.
C—In vivo Assessment of Topical Antiandrogenic Activity
The antiandrogenic activity of compounds for topical use was determined using the ear sebaceous glands model in the male hamster.
Male Golden Syrian Hamsters (SYR) of 110-120 g were obtained from Harlan Sprague-Dawley (Madison, USA) and housed up to 2 per plastic cage in a temperature (22±3° C.) and light (12 h light/day, lights on at 7h15)-controlled environment. The hamsters were fed with Certified Rodent Diet 5002 (pellet) and had access to tap water ad libitum. The animals were acclimatized for at least five days prior to beginning the study. Animals were randomly assigned to groups of eight hamsters. One group of hamsters were castrated under isoflurane-induced anesthesia on the day of dosing initiation (SD 1) and used as control group.
To evaluate the antiandrogenic activity, the tested compounds were applied topically on the inner part of the left ear, once daily, for 14 days. […] For animals of the castrated and intact control groups, one ten-μL vehicle was applied onto the left ear. No solution was applied on the right ear.
On Study Day 15, the hamsters were euthanized by cervical dislocation under isoflurane anesthesia. The left and right ears were collected attached together by the head skin, flat fixed on a paper and then immersed in 10% neutral buffered formalin. Punctures making a circular hole of 6 mm were made on the flat fixed ear in the region where the solution has been applied. These punch-made specimens were collected from each ear. Using a scalpel blade, the collected 6 mm round ear specimens were cut in the middle between the two cartilage ridges. The two equal parts of the ear round specimens were embedded in paraffin. After processing the tissue, the two parts were vertically embedded parallel to each other in such a way that the flat 6 mm area was facing out. From each paraffin block, one section (5 μm thick) was cut and collected on a glass slide. Thus, each slide contained two elongated sections of 6 mm length. Slides were stained with hematoxylin and eosin.
Using the video camera and the lens number X5 of the light microscope, the resulting field appearing on the screen has a length of 0.953 mm. When the first 6 mm long section was examined from the left to the right, the first and second fields were ignored and the third and fourth fields were captured for analysis by the image analyzer. Each field has the length of 0.953 mm. With the help of the screen mouse, the sebaceous glands within the whole field length (0.953 mm) were marked. Also, an area having the length of the whole field and the height between stratum granulosum and the upper edge of the cartilage was drawn.
The total area of the sebaceous glands (μm^2) in each examined field was calculated by the Image Analyser. We also measured the total area, which has the length of 0.953 mm and the height between stratum granulosum and the cartilage. In addition, the percentage of the area occupied by the glands was obtained. Thus, for each ear, two sections were cut and two fields from each section were analyzed. The total of the four readings was averaged and the mean standard error of the mean was calculated by the image analyzer. The results were expressed in μm^2 as the total surface of glands per field and also as percentage of the area occupied by the glands in the tissue.

Setting [3] is: Mus musculus, inhibition of DHT-stimulated Shionogi cell number, 10-12 days, read-out: Antiandrogenic activity IC50.
[4] abbreviates: inhibition of DHT-stimulated Shionogi cell number.
Setting [5] is: Mus musculus, read-out: Antiandrogenic activity IC50 (nM).

In the case of `N#Cc1ccc(-c2c(F)cccc2F)cc1C(F)(F)F` [EM-4004], the IC50 in test [1] (setting [3]) is greater than 500 nM. In test [1] (setting [4]), the “A = Ki OH-Flu/Ki compound” value is given as less than 0.2. Also, the inhibition in vivo at 0.01 mg in test [2] (topical) turned out to be 60%.
`N#Cc1ccc(-c2cc(F)ccc2F)cc1C(F)(F)F` [EM-4046]: the half-inhibitory concentration (IC50) in test [1] (setting [3]) was greater than 500 nM. In addition, in test [1] (setting [4]), the “A = Ki OH-Flu/Ki compound” value was less than 0.2. Moreover, in test [2] (topical), the inhibition in vivo at 0.03 mg was found to be 5%.
Regarding `COc1ccc(-c2ccc(C#N)c(C(F)(F)F)c2)cc1F` [EM-4057], the IC50 in test [1] (setting [5]) was 84 nM. For the same molecule, the “A = Ki OH-Flu/Ki compound” value in test [1] (setting [4]) stood at 1.2. In addition, the inhibition in vivo at 0.01 mg in test [2] (topical) amounted to 64%.
With `COc1cc(F)ccc1-c1ccc(C#N)c(C(F)(F)F)c1` [EM-4068], the IC50 in test [1] (setting [5]) amounted to 96 nM. Further, in test [1] (setting [4]), the “A = Ki OH-Flu/Ki compound” value is recorded as 0.9. Moreover, the inhibition in vivo at 0.03 mg in test [2] (topical) was 15%.
For the molecule `COc1ccc(-c2ccc(C#N)c(C(F)(F)F)c2)cc1Br` [EM-4080], the 50% inhibitory concentration (IC50) in test [1] (setting [3]) was 102 nM. Further, the “A = Ki OH-Flu/Ki compound” value in test [1] (setting [4]) is 0.6. In addition, the inhibition in vivo at 0.03 mg in test [2] (topical) was found to be 5%.
For the molecule `COc1ccc(-c2ccc(C#N)c(C(F)(F)F)c2)c(F)c1` [EM-4174], the IC50 in test [1] (setting [5]) came to 77 nM. Moreover, in test [1] (setting [4]), the “A = Ki OH-Flu/Ki compound” value is 2.1. In addition, the inhibition in vivo at 0.01 mg in test [2] (topical) was determined as 86%.
Take `N#Cc1ccc(-c2ccc(N)cc2)cc1C(F)(F)F` [EM-4186]: in test [1] (setting [3]), the IC50 was 118 nM. Besides, the “A = Ki OH-Flu/Ki compound” value in test [1] (setting [4]) is recorded as 1.2. Also, the inhibition in vivo at 0.03 mg in test [2] (topical) amounted to 0%.
`N#Cc1ccc(-c2cccc(C(O)C(F)(F)F)c2)cc1C(F)(F)F` (centres unmarked) [EM-4265]: the IC50 in test [1] (setting [3]) amounted to 116 nM. The “A = Ki OH-Flu/Ki compound” value in test [1] (setting [4]) amounted to 0.7. For the same molecule, the inhibition in vivo at 0.03 mg in test [2] (topical) stood at 0%.
Regarding `N#Cc1ccc(-c2ccc(F)cc2C(=O)Nc2ccc(Cl)cc2)cc1C(F)(F)F` [EM-4863], the IC50 in test [1] (inhibition of DHT-stimulated Shionogi cell number, 10-12 days, read-out: Antiandrogenic activity IC50) turned out to be 161 nM. Besides, in test [1] (setting [4]), the “A = Ki OH-Flu/Ki compound” value is reported as 0.3. For the same molecule, the inhibition in vivo at 0.03 mg in test [2] stood at 21%.
Take `N#Cc1ccc(-c2c(F)cccc2F)cc1Cl` [EM-4977, 3-chloro-2′,6′-difluoro-biphenyl-4-carbonitrile]: in test [1] (setting [5]), the IC50 came out at 12.8 nM. Further, the “A = Ki OH-Flu/Ki compound” value in test [1] (setting [4]) is 12. Besides, the inhibition in vivo at 0.001 mg in test [2] (topical, dose 1 μg daily for 14 days) stood at 25.9%. Further, in test [2] (topical, dose 3 μg daily for 14 days), the inhibition in vivo at 0.003 mg worked out at 48%. For the same molecule, the inhibition in vivo at 0.01 mg in test [2] (topical) was found to be 73%.
